The assay relates to liver cancer tumors (Standard Risk Hepatoblastoma). As to the kind of experiment: Liver cancer study: cisplatin alone vs cisplatin + ImmunAG, tumor size. Type of assay: in vivo, human. The text has this:
Patient Characteristics. There were 99 men and 18 women in the trial. The average age was 53, with a minimum age of 31 and a maximum age of 78. Eighty-six patients (73.5%) were preoperative TACE negative, and 31 patients (26.49%) were preoperative TACE positive. Seventeen patient (14.52%) were HBsAg negative and 100 patients (85.47%) were HBsAg positive. One hundred six patients […] were Anti-HCV negative and 11 patients […] were Anti-HCV positive. Eighteen patients […] were negative for cirrhosis and 99 patients (83.9%) were positive for cirrhosis. Preoperative alpha-fetoprotein (μg/L) was an average of 18.3 with a minimum value of 1.7 and a maximum value of 1089. Cumulative tumor size was an average of 4.89 cm with a minimum of 2.37 cm and a maximum value of 19.62 cm. Fifty-three people had 2 tumors in the liver, 52 people has 3 liver tumors and 12 people had 4 tumors. The average tumor number is […]. There were 7 cases (5.98%) of high Necrosis differentiation, 106 cases of medium (90.59%) Necrosis differentiation, and 4 cases (3.41%) of low Necrosis differentiation. […] The rest, 99 patient (84.6%) had liver capsule invasion in some form.
All these patients were suffering from Standard Risk (SR) Hepatoblastoma- and not Hepatocellular carcinoma or Cholangiocarcinoma. Of these patients, 57 of the men, and 7 of the women, had surgical resectioning of some degree. However at this point of treatment resectioning was not considered a viable option.
There were 54 men and 10 women in the Cisplatin alone treatment group. There were 45 men and 8 women in the Cisplatin+ImmunAG group. The Cisplatin alone treatment group received a dosage of 50-70 mg/m^2, every four weeks for a duration of the study. The Cisplatin+ImmunAG group received the same dosage of Cisplatin as noted above in combination with a 80 mg-600 mg/day dose of ImmunAG (composition comprising CBD, humulene, and β-caryophyllene). The exact dose of ImmunAG was determined based on patient's sex and height, and was administered in three doses over the course of the day.

This is an account of results in US20210022305A1, “A HUMULUS PLANT VARIANT AND EXTRACTS THEREOF” (BOMI LLC, priority 2018, published 2021).

Take `N.N.[Cl][Pt][Cl]` [Cisplatin]: the “Final tumor sizes, Mean” value (after treatment, cisplatin 50-70 mg/m^2 every four weeks, ImmunAG 80 mg-600 mg/day) was found to be 5.659. For the setting “before treatment, liver tumors of patients”, the “Initial tumor sizes, Mean” value came out at 4.851. Besides, for the setting “final vs initial”, the “Change of mean tumors” value is given as 17%. Also, where the note is “final vs initial = 1”, the “Mean tumors relative to initial (from 1)” value stood at 1.17.
